Assay results published in patent US20180249717A1, “HOUSE DUST MITE ALLERGY PROTEIN REMOVER, AND COMPOSITION THEREOF” (AYJ BIO LAB INC., priority 2015, published 2018).

Legend:
[1] = system: Dermatophagoides pteronyssinus house dust mite proteins; assay: Dot-blot immunoassay for human-specific IgE reactivity (inhibition of allergenicity); assay type: binding; settings: 500 μg each, allergic patient's serum IgE
Protocol: (§1) In addition, a dot-blot immunoassay for human-specific IgE reactivity was performed, as described previously [Tsai, L. C., Y. C. Sun, P. L. Chao, M. W. Hung, I. C. Kuo, et al. 2000. Protein sequence analysis and mapping of IgE and IgG epitopes of an allergenic 98 kDa Dermatophagoides farinae paramyosin, Der f 11. Allergy 55: 141147]. House dust mite proteins (10 μg) were applied to a PVDF membrane using a Hybri-Dot Manifold (Life Technologies, Gaithersburg, Md.) according to the manufacturer's instructions. After blocking with 0.1% PBS-T containing 5% skim milk, the membrane was incubated with 1:500 diluted allergic patient's antiserum at 4° C. overnight. After washing with 0.1% PBS-T three times, the membrane was incubated with 1:20000 diluted goat anti-human IgG (H+L)-HRP and IgE-HRP conjugate (Zymed Laboratories, Sanfrancisco, Calif.) for 1 hr at 25±1° C. The essential oils and compounds (500 μg each) were tested with the patient's serum which was diluted 1:250, and then incubated 1:5000 diluted IgE-HRP conjugate antibodies. After additional washing, as stated previously, the blot was incubated with ECL chemiluminescence reagent for 1 min and exposed to X-ray films for 5-20 min at room temperature. The intensity of the IgE-reacting dot was determined using a Bio-Rad Gel Doc XR image analyzer, as stated previously. Tannic acid served as a standard reference and was similarly formulated.
(§2) The reference numerals used in FIG. 2 indicate the following: C: untreated control; T: tannic acid; 1: spearmint essential oil; 2: Summer savory essential oil; 3: Oregano essential oil; 4: Carrot seed essential oil; 5: Catnip essential oil; 6: Mandarin essential oil; 7: Lime essential oil; and 8: Celery essential oil.
(§3) The inhibitory activities of the above-described plant essential oils and compounds against the allergenicity of two species of house dust mite proteins are shown in Tables 9 and 10 below, respectively. […]

[2] = system: house dust mite proteins (two major HDM allergens group 1 and 2); assay: SDS-PAGE denaturing/neutralizing activity against house dust mite proteins; assay type: biochemical; set-up: key: +++: comparable to or higher than the activity of the positive control tannic acid; ++: neutralizing activity somewhat lower than that of the positive control; settings: compounds; incubated with mite proteins 1 hr at 25 C; relative to tannic acid
Text: Adult mites (both sexes, 6-8 days old) were extracted, as described previously [Nakada, S., K. Ito, C. Urata, Y. Sakamoto, M. Hasegawa, T. Nakagawa & T. Miyamoto. 1985. Allergenecity and immunogenicity of house-dust mite (Dermatophagoides farinae) antigens treated with glutaraldehyde. Ann. Allergy 54: 437441; Tovey, E. R. & B. A. Baldo. 1987. Comparison by electroblotting of IgE-binding components in ectracts of house dust mite bodies and spent mite culture. J. Allergy Clin. Immunol. 79: 93102.]. In brief, whole bodies (80 mg fresh weight/4 mL buffer) were homogenized on ice in 0.01 M phosphate-buffered saline (PBS) (pH 7.4) for 15 min. The homogenate was then stirred at 0° C. for 1 hr, centrifuged for 30 min at 14000 g, and concentrated by ultrafiltration to 1 mg/mL of protein.
The protein content was determined using a Bradford protein assay kit (Pierce, Rockford, Ill.). Bovine serum albumin (Pierce, Rockford, Ill.) was used as the standard. Precision Plus Protein Standards was supplied by Bio-Rad (Hercules, Calif.).
SDS-PAGE was performed according to the modified method of Laemmli [Laemmli, U.K. 1970. Cleavage of structural proteins during the assembly of the head of bacteriophage T4. Nature 227: 680685]. Based on the preliminary test results, mixtures of mite proteins ([…]) and each test material ([…]) in 4.5 μL of dimethyl sulfoxide (DMSO) were incubated for 1 hr at 25±1° C. Negative controls consisted of 4.5 μL of DMSO. Tannic acid or 3% tannic acid solution served as a positive control and was similarly formulated. Samples were mixed with an equal volume of SDS sample buffer (4% SDS, 4% mercaptoethanol, and 100 mM Tris-HCl, pH 8.0), boiled for 10 min, and resolved by electrophoresis on 12% (w/v) polyacrylamide gels by using a Mini-Protean 3 electrophoresis cell (Bio-Rad, Hercules, Calif.). After electrophoresis at 120 V for 80 min, the gels were stained with 0.1% Coomassie brilliant blue R-250 for quantification. The intensity of denaturing activity of each test material toward the two major HDM allergens group 1 and 2 was determined using a Gel Doc XR image analyzer with Quantity One Software (Bio-Rad, Hercules, Calif.) according to the manufacturer's instructions.
In FIG. 1, lane M represents a protein marker; land Ext represents a negative control loaded only with untreated house dust mite protein; lanes 5 and 6 indicate moderate activity; lanes 1, 2, 3 and 4 indicate strong activity; and lane TA represents a positive control treated with tannic acid.
Plant essential oils and compounds, confirmed to have neutralizing activity against house dust mites in the above experiments, are summarized in Tables 7 and 8 below, respectively.

[3] = system: Dermatophagoides farina house dust mite proteins; assay: Dot-blot immunoassay for human-specific IgE reactivity (inhibition of allergenicity); assay type: binding; set-up: unit not given here; settings: 500 μg each, allergic patient's serum IgE
Protocol: as §1, §2, §3

[4] = system: adult American house dust mites (Dermatophagoides farina); assay: Spray bioassay of spray formulations (acaricidal activity); assay type: in vivo; settings: sprayed on cotton fabric, 24 h post-treatment
Protocol: The acaricidal effect of each of carrot seed essential formulations and spearmint essential oil formulations, dissolved in ethanolpolyoxyethylene+polyoxypropylene (9:1) styrenated phenyl ether, was evaluated using a spray bioassay.
In brief, a spray bioassay was used to evaluate the efficacy of four experimental spray formulations against adult American house dust mites (Dermatophagoides farina) [Lee, J. H., J. R. Kim, Y. R. Koh & Y. J. Ahn. 2013. Contact and fumigant toxicity of Pinus densiflora needle hydrodistillate constituents and related compounds and efficacy of spray formulations containing the oil to Dermatophagoides farinae. Pest Manag. Sci. 69: 696702]. Each test solution was sprayed two times successively at 10 cm upwards onto the 5 cm diameter black cotton-fabric circle. After drying for 5 min, each fabric circle was placed onto the bottom section of a disposable Petri dish (5 cm diameter×1 cm height). Groups of 40-50 adult mites (both sexes, 7-10 days old) were placed separately onto the treated fabric circles, and each dish was sealed with the original tight-fitting lid. 2.5 g/L of the commercial acaricide d-phenothrin or permethnrin (cis:trans, 25:75) spray served as a positive control. […] Mortalities were determined 24 h post-treatment under a dissecting microscope (×20). […]

[5] = system: group 2 allergens (Der p II and Der f II); settings: 3% tannic acid solution (wt/vol), compared with group 1; cited from earlier work
[6] = system: group 1 allergens (Der p I and Der f I); settings: 3% tannic acid solution (wt/vol); cited from earlier work

| Structure (SMILES) | Inhibition of allergenicity, Dermatophagoides pteronyssinus ([1]; compounds) | Neutralizing activity [2] | Inhibition of allergenicity, Dermatophagoides farina ([3]; compounds) | other results |
| --- | --- | --- | --- | --- |
| C=CCN=C=S [Allyl isothiocyanate] | 73.0 | +++ | 82.1 | – |
| CC=Cc1ccc(OC)cc1 [Anethole] | 52.1 | ++ | 62.3 | – |
| C/C=C\c1cc(OC)c(OC)cc1OC [Beta-asarone] | 68.5 | ++ | 64.9 | – |
| CC12CCC(CC1=O)C2(C)C (stereo not drawn) [Camphor] | 77.9 | ++ | 78.2 | – |
| CC(C)=CCCC(C)CCO (stereo not drawn) [Citronellol] | 49.2 | ++ | 61.2 | – |
| CC(C)c1ccccc1 [Cumene] | 47.8 | ++ | 60.9 | – |
| CC(C)c1ccc(C=O)cc1 [Cuminaldehyde] | 76.1 | +++ | 80.4 | – |
| CC1=CCC2C(C1)C2(C)C (stereo not drawn) [Delta-3-carene] | 78.1 | +++ | 77.9 | – |
| CC(C)=CCC/C(C)=C/C=O [Geranial] | 68.1 | +++ | 72.6 | – |
| C=C(C)[C@@H]1CC[C@@H](C)C[C@H]1O [Isopulegol] | 57.4 | ++ | 76.5 | – |
| C=C(C)[C@H](CO)CC=C(C)C [Lavandulol] | 62.7 | ++ | 74.4 | – |
| C=CCc1cc(OC)c2c(c1)OCO2 [Myristicin] | 67.0 | +++ | 76.3 | – |
| CC(C)=CCC/C(C)=C\C=O [Neral] | 56.5 | ++ | 77.2 | – |
| CC(C)=CCC/C(C)=C\CO [Nerol] | 42.3 | ++ | 67.9 | – |
| C=CC(C)(O)CCC=C(C)CCC=C(C)C (stereo not drawn) [Nerolidol] | 67.7 | ++ | 42.3 | – |
| C=C(C)[C@@H]1CC=C(CO)CC1 [Perilla alcohol] | 56.5 | ++ | 68.7 | – |
| C=C(C)C1CC=C(C=O)CC1 (stereo not drawn) [Perillaldehyde] | 76.4 | +++ | 79.1 | – |
| CC1(C)C(C=C(Cl)Cl)C1C(=O)OCc1cccc(Oc2ccccc2)c1 (stereo not drawn) [Permethrin] | – | – | – | mortality at 2500 µg/mL ([4]; Dermatophagoides, spearmint essential oil sprays, permethrin spray 2.5 g/L as positive control, read-out: Mortality (%, standard error)): 17.3 ± 3.3% |
| O=C(OC[C@H]1O[C@@H](OC(=O)c2cc(O)c(O)c(OC(=O)c3cc(O)c(O)c(O)c3)c2)[C@H](OC(=O)c2cc(O)c(O)c(OC(=O)c3cc(O)c(O)c(O)c3)c2)[C@@H](OC(=O)c2cc(O)c(O)c(OC(=O)c3cc(O)c(O)c(O)c3)c2)[C@@H]1OC(=O)c1cc(O)c(O)c(OC(=O)c2cc(O)c(O)c(O)c2)c1)c1cc(O)c(O)c(OC(=O)c2cc(O)c(O)c(O)c2)c1 [Tannic acid, reference compound] | – | – | – | Inhibition of allergenicity, Dermatophagoides pteronyssinus ([1]; essential oils): 81.1; Denaturation of group 2 allergens [5]: somewhat less effective; Inhibition of allergenicity, Dermatophagoides farina ([3]; essential oils): 87.2; Denaturation of group 1 allergens [6]: denatures |
| Cc1ccc(C(C)C)c(O)c1 [Thymol] | 67.9 | +++ | 79.4 | – |
| CC(C)=CC1C(C(=O)OCc2cccc(Oc3ccccc3)c2)C1(C)C (stereo not drawn) [d-Phenothrin, d-phenothrin] | – | – | – | Mortality (%, standard error) ([4]; carrot seed essential oil sprays, d-phenothrin spray 2.5 g/L as positive control): 8.3 ± 1.7 d % |
